In patent US9771378B2 (Denali Therapeutics, Inc., priority 2014, dated 2017) one finds IC50 data, which are given here for 47 compounds.

Usually IC50 stands for the point on the concentration scale where inhibition reaches its midpoint.

Molecules are shown by their SMILES.

This experiment concerns Aβ42 (human neuroglioma H4 cells expressing human wild type APP751). Kind of experiment: In vitro cell screening assay with sandwich ELISA quantification of Aβ42 peptide. It is filed as cell-based. The settings on record: H4 cells stably expressing human wild type APP751; Pro293 chemically defined medium; compounds 0.003-10 μM; incubated overnight (16-18 h); supernatant Aβ42 by sandwich ELISA; normalized to DMSO and DAPT; read-out: Aβ42 H4 Prot Fre IC50. In outline: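 H4 neuroglioma cells stably expressing human wild-type APP751 were treated in Pro293 medium with compounds (0.003-10 μM, 0.33% DMSO) for 16-18 h at 37° C. Secreted Aβ42 measured by sandwich ELISA (C-terminal capture, 4G8-HRP detection, TMB, 450 nm). IC50 by variable-slope sigmoidal regression on percent of DMSO control.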
On the technique in general: An ELISA detects its analyte on a solid surface through an enzyme-linked reagent.
On to `COc1cc(Nc2ncc3c(n2)N(C)[C@@H](c2ccccc2)CO3)ccc1-n1cnc(C)c1` [Example 21A, (S)—N-(3-methoxy-4-(4-methyl-1H-imidazol-1-yl)phenyl)-8-methyl-7-phenyl-7,8-dihydro-6H-pyrimido[5,4-b][1,4]oxazin-2-amine], for which the 50% inhibitory concentration (IC50) was found to be 22 nM.
`COc1cc(Nc2ncc3c(n2)N(C)C(C2CC(F)(F)C2)CO3)cnc1-n1cnc(C)c1` (single isomer, unassigned; (+)) [Example 219A]: the IC50 amounted to 25 nM.
Take `COc1cc(Nc2ncc3c(n2)N(C)[C@H](COc2ccccc2)CO3)ccc1-n1cnc(C)c1` [Example 201]: the IC50 was 143 nM.
`COc1cc(Nc2ncc3c(n2)N(C)C(C)CO3)ccc1-n1cnc(C)c1` (racemic) [Example 52]: the IC50 was determined as 205 nM.
For `Cc1cn(-c2ccc(Nc3ncc4c(n3)N(C)C(c3cc(F)cc(F)c3)CO4)cc2)cn1` (single isomer, unassigned; (-)) [Example 23A] the value was 2040 nM.
In the case of `COc1cc(Nc2ncc3c(n2)N(C)C(C2CCC(F)(F)CC2)CO3)ccc1-n1cnc(C)c1` (single isomer, unassigned; (+)) [Example 216B] it was 33 nM.
`COc1cc(Nc2ncc3c(n2)N(C)C(Cc2ccccc2)CO3)ccc1-n1cnc(C)c1` (single isomer, unassigned; (-)) [Example 47B]: the IC50 is 65 nM.
In the case of `COc1cc(Nc2ncc3c(n2)N(C)C2(CC2)CO3)cnc1-c1cnn(C)c1` [Example 268] it was 2780 nM; in that of `Cc1cn(-c2ccc(Nc3ncc4c(n3)N(C)C(c3ccccc3C)CO4)cc2F)cn1` (single isomer, unassigned; (+)) [Example 34A], 20 nM.
On to `CN1c2nc(Nc3ccc(C#N)cc3)ncc2OCC1c1cc(F)cc(F)c1` (single isomer, unassigned; (-)) [Example 233B, (−)-4-((7-(3,5-difluorophenyl)-8-methyl-7,8-dihydro-6H-pyrimido [5,4-b] [1, 4]oxazin-2-yl)amino) benzonitrile], for which the IC50 was greater than 3000 nM.
`Cc1cn(-c2ccc(Nc3ncc4c(n3)N(C)C(c3ccccc3C)CO4)cc2)cn1` (single isomer, unassigned; (-)) [Example 43B]: the IC50 is greater than 300 nM.
In the case of `COc1cc(Nc2ncc3c(n2)N(C)C(c2cc(F)c(F)cc2F)CO3)cnc1-n1cnc(C)c1` (single isomer, unassigned; (+)) [Example 181B] it was 392 nM; in that of `COc1cc(Nc2ncc3c(n2)N(C)C(C2CC(F)(F)C2)CO3)ccc1-n1cnc(C)c1` (single isomer, unassigned; (+)) [Example 212B], 61 nM.
For `COc1ccc(Cl)c(C2COc3cnc(Nc4ccc(-n5cnc(C)c5)c(OC)c4)nc3N2C)c1` (racemic) [Example 87], the IC50 was 42 nM.
Consider `COc1cc(Nc2ncc3c(n2)N(C)C(C2CCC(F)(F)CC2)CO3)cnc1-c1cnn(C)c1` (single isomer, unassigned; (+)) [Example 231A], for which the IC50 was determined as 342 nM.
`COc1cc(Nc2ncc3c(n2)N(C)C(c2cc(F)cc(F)c2)CO3)ccc1-n1cnc(C)c1` (racemic) [Example 30]: the IC50 stood at 18 nM.
In the case of `Cc1cn(-c2ccc(Nc3ncc4c(n3)N(C)C(c3cc(F)c(F)c(F)c3)CO4)cc2F)cn1` (racemic) [Example 38] it was 32 nM; in that of `COc1cc(Nc2ncc3c(n2)N(C)C2(CO3)CC(F)(F)C2)cnc1-n1cnc(C)c1` [Example 278], 92 nM; in that of `COc1cc(Nc2ncc3c(n2)N2CCC[C@]2(C)CO3)ccc1-n1cnc(C)c1` [Example 294, (R)-N-(3-methoxy-4-(4-methyl-1H-imidazol-1-yl)phenyl)-6a-methyl-6a, 7,8,9-tetrahydro-6H-pyrimido [5,4-b] pyrrolo [1,2-d] [1, 4] oxazin-2-amine], 80 nM.
Consider `COc1ccc(C)c(C2COc3cnc(Nc4ccc(-n5cnc(C)c5)c(OC)c4)nc3N2C)c1` (single isomer, unassigned; (+)) [Example 175A], for which the IC50 was determined as 11 nM.
For `Cc1cn(-c2ccc(Nc3ncc4c(n3)N(C)C(c3cc(F)c(F)cc3F)CO4)cc2F)cn1` (single isomer, unassigned; (-)) [Example 98B] the value was 2100 nM.
For `COc1cc(Nc2ncc3c(n2)N(C)C(c2ccccc2OC(F)(F)F)CO3)ccc1-n1cnc(C)c1` (single isomer, unassigned; (-)) [Example 60A] the value was 92 nM; for `Cc1cc(-c2ccc(Nc3ncc4c(n3)N(C)C(c3cc(F)cc(F)c3)CO4)cc2F)ccn1` (single isomer, unassigned; (-)) [Example 41B], 1260 nM; for `COc1cc(Nc2ncc3c(n2)N(C)C(c2ccc(F)cc2Cl)CO3)ccc1-n1cnc(C)c1` (single isomer, unassigned; (+)) [Example 93B], 32 nM.
On to `COc1cc(Nc2ncc3c(n2)N(C)C(c2cc(F)cc(F)c2)CO3)ccc1-n1cnc(C)n1` (single isomer, unassigned; (+)) [Example 244A], for which the IC50 was 23 nM.
For `COc1cc(Nc2ncc3c(n2)N(C)C(c2cc(F)c(F)c(F)c2)CO3)ccc1-c1ccnc(C)c1` (single isomer, unassigned; (-)) [Example 39B] the value was 984 nM.
`Cc1cn(-c2ccc(Nc3ncc4c(n3)N(C)C(c3cc(F)cc(F)c3)CO4)nc2C#N)cn1` (single isomer, unassigned; (-)) [Example 192A, (−)-6-((7-(3,5-difluorophenyl)-8-methyl-7,8-dihydro-6H-pyrimido [5,4-b] [1, 4]oxazin-2-yl)amino)-3-(4-methyl-1H-imidazol-1-yl) picolinonitrile]: the IC50 was greater than 3000 nM.
Take `Cc1cc(-c2ccc(Nc3ncc4c(n3)N(C)C(c3cc(F)c(F)c(F)c3)CO4)cc2F)ccn1` (single isomer, unassigned; (+)) [Example 36A]: the IC50 amounted to 107 nM.
Regarding `COc1cc(Nc2ncc3c(n2)N(C)C(C(F)(F)F)CO3)cnc1-n1cnc(C)c1` (single isomer, unassigned; (-)) [Example 193B], the IC50 was determined as 35 nM.
Regarding `COc1ccc(C2COc3cnc(Nc4ccc(-n5cnc(C)c5)c(OC)c4)nc3N2C)c(Cl)c1` (racemic) [Example 86], the IC50 came to 38 nM.
As to `COc1cc(Nc2ncc3c(n2)N(C)C(c2ccc(F)cc2)CO3)ccc1-n1cnc(C)c1` (single isomer, unassigned; (+)) [Example 49B], the IC50 came to 9 nM.
For the compound `Cc1cn(-c2ccc(Nc3ncc4c(n3)N(C)C(c3cc(C(F)(F)F)ccc3Cl)CO4)cc2F)cn1` (single isomer, unassigned; (-)) [Example 173B], the half-maximal inhibitory concentration (IC50) was found to be 831 nM.
Turning to `COc1cc(Nc2ncc3c(n2)N(C)C(C)CO3)ccc1-n1cnc(C)c1` (single isomer, unassigned; (+)) [Example 116B], the IC50 is 63 nM.
Consider `Cc1cn(-c2ccc(Nc3ncc4c(n3)N(C)C(c3ccccc3)CO4)cc2)cn1` (racemic) [Example 26], for which the IC50 was found to be 121 nM.
In the case of `COc1cc(Nc2ncc3c(n2)N(C)C2(CCCC2)CO3)cnc1-c1cnn(C)c1` [Example 266], the IC50 was greater than 3000 nM.
Consider `COc1cc(Nc2ncc3c(n2)N(C)C(C(F)(F)F)CO3)ccc1-n1cnc(C)n1` (single isomer, unassigned; (-)) [Example 242A], for which the 50% inhibitory concentration (IC50) was found to be 78 nM.
Turning to `COc1cc(Nc2ncc3c(n2)N(C)C(c2cc(F)cc(F)c2)CO3)ccc1C#N` (single isomer, unassigned; (+)) [Example 237B, (+)-4-((7-(3,5-difluorophenyl)-8-methyl-7,8-dihydro-6H-pyrimido [5,4-b] [1, 4]oxazin-2-yl)amino)-2-methoxybenzonitrile], the 50% inhibitory concentration (IC50) is 226 nM.
In the case of `COc1cc(Nc2ncc3c(n2)N(C)C(c2ccccc2C(F)(F)F)CO3)ccc1-c1ccnc(C)c1` (single isomer, unassigned; (-)) [Example 70A] it was 339 nM.
As to `COc1cc(Nc2ncc3c(n2)N(C)C(c2ccc(C(F)(F)F)cc2C(F)(F)F)CO3)ccc1-n1cnc(C)c1` (single isomer, unassigned; (-)) [Example 168A], the IC50 was 566 nM.
`COc1cc(Nc2ncc3c(n2)N(C)C(c2cc(F)ccc2C(F)(F)F)CO3)ccc1-n1cnc(C)c1` (single isomer, unassigned; (+)) [Example 105B]: the half-inhibitory concentration (IC50) turned out to be 51 nM.
Regarding `Cc1cc(-c2ccc(Nc3ncc4c(n3)N(C)C(Cc3ccccc3)CO4)cc2F)ccn1` (single isomer, unassigned; (+)) [Example 57A], the concentration for half-maximal inhibition (IC50) came to 118 nM.
Take `Cc1cn(-c2ccc(Nc3ncc4c(n3)N(C)C(c3cc(F)c(F)cc3Cl)CO4)cc2F)cn1` (single isomer, unassigned; (+)) [Example 169A]: the IC50 amounted to 45 nM.
With `COc1cc(Nc2ncc3c(n2)N2CCC(F)(F)C2CO3)ccc1-n1cnc(C)c1` (single isomer, unassigned; (-)) [Example 304A, (−)-7,7-difluoro-N-(3-methoxy-4-(4-methyl-1H-imidazol-1-yl)phenyl)-6a, 7,8,9-tetrahydro-6H-pyrimido [5,4-b] pyrrolo [1,2-d] [1, 4] oxazin-2-amine], the half-inhibitory concentration (IC50) stood at 274 nM.
For the compound `Cc1cn(-c2ccc(Nc3ncc4c(n3)N(C)C(c3ccccc3C(F)(F)F)CO4)cc2F)cn1` (single isomer, unassigned; (-)) [Example 84B], the IC50 came out at 421 nM.
For `COc1cc(Nc2ncc3c(n2)N(C)C(c2ccc(F)cc2C)CO3)ccc1-n1cnc(C)c1` (racemic) [Example 54] the value was 75 nM; for `COc1cc(Nc2ncc3c(n2)N(C)C(c2cc(F)cc(F)c2)CO3)ccc1-n1cnc(C)n1` (single isomer, unassigned; (-)) [Example 244B], 935 nM; for `COc1cc(Nc2ncc3c(n2)N(C)C(C2CCOCC2)CO3)ccc1-n1cnc(C)c1` (single isomer, unassigned; (-)) [Example 114A], 494 nM.
